A short description of this test: MIC of test compounds against various organisms. Type of test: cell-based. As to the method:
The MIC (μg/ml) of test compounds against various organisms was determined including: S. epidermidis CL7, S. aureus WCUH29, S. pneumoniae 1629, S. pyogenes CN10, H. influenzae ATCC 49247, E.faecalis 2, M. catarrhalis Ravasio, E. coli 7623.

The mark [1] stands for this setting: versus all these organisms (the eight strains of b406), read-out: MIC.
The mark [2] stands for this setting: versus some of these organisms (of the eight strains; which ones not given), read-out: MIC.

Structures are written as SMILES. Where a name gives a salt, the structure may show the parent alone. Read-outs that look alike come from different tables or passages of the source.

Broadly, the MIC is the lowest concentration that inhibits growth of the organism.

On to `COc1ccc2nccc(NC(=O)[C@]3(O)C=C[C@@H](NCc4ccc5c(n4)NC(=O)CS5)CC3)c2n1` (racemic) [Example 1, (1R,4S)-1-Hydroxy-4-[(3-oxo-3,4-dihydro-2H-pyrido[3,2-b][1,4]thiazin-6-ylmethyl)-amino]-cyclohex-2-enecarboxylic acid (6methoxy-[1,5]naphthyridin-4-yl)-amide dihydrochloride and (1S,4R)-1-Hydroxy-4-[(3-oxo-3,4-dihydro-2H-pyrido[3,2-b][1,4]thiazin-6-ylmethyl)-amino]-cyclohex-2-enecarboxylic acid (6-methoxy-[1,5]naphthyridin-4-yl)-amide dihydrochloride], for which the MIC was not above 2 µg/mL. In the case of `COc1ccc2nccc(NC(=O)[C@]3(O)C=C[C@@H](NCc4ccc5c(n4)NC(=O)CO5)CC3)c2n1` (racemic) [Example 2, (1R,4S)-1-Hydroxy-4-[(3-oxo-3,4-dihydro-2H-pyrido[3,2-b][1,4]oxazin-6-ylmethyl)-amino]-cyclohex-2-enecarboxylic acid (6-methoxy-[1,5]naphthyridin-4-yl)-amide dihydrochloride and (1S,4R)-1-Hydroxy-4-[(3-oxo-3,4-dihydro-2H-pyrido[3,2-b][1,4]oxazin-6-ylmethyl)-amino]-cyclohex-2-enecarboxylic acid (6-methoxy-[1,5]naphthyridin-4-yl)-amide dihydrochloride], the MIC is not above 2 µg/mL. Consider `COc1ccc2nccc(NC(=O)[C@@]3(O)C=C[C@H](NCc4cc5c(cn4)OCCO5)CC3)c2n1` [Example 3], for which the MIC under setting [1] was not above 2 µg/mL.

With `COc1ccc2nccc(NC(=O)[C@@]3(O)C=C[C@H](NCc4cnc5c(c4)OCCO5)CC3)c2n1` [Example 5], the minimal inhibitory concentration (MIC) under setting [1] was not above 2 µg/mL. On to `COc1ccc2nccc(NC(=O)[C@@]3(O)C=C[C@H](NCc4ccc5c(n4)OCCO5)CC3)c2n1` [Example 6], for which the MIC under setting [2] is not above 1 µg/mL. Still for that read-out and setting: the figure for `COc1ccc2nccc(NC(=O)[C@@]3(O)C=C[C@H](NCc4ncc5c(n4)OCCO5)CC3)c2n1` [Example 7] is not above 1 µg/mL; for `COCCOc1c(F)ccc2nccc(NC(=O)[C@@]3(O)C=C[C@H](NCc4cc5c(cn4)OCCO5)CC3)c12` [Example 11] it is not above 1 µg/mL; for `COc1ccc2nccc(NC(=O)[C@@]3(O)C=C[C@H](NCc4cc5c(cn4)OCCO5)CC3)c2c1F` [Example 12] it is not above 1 µg/mL.

For the origin of these results see patent US20060040925A1, “Aminocyclohexene quinolines and their azaisosteric analogues with antibacterial activity” (priority 2002, published 2006).
